Where a name gives a salt, the structure may show the parent alone. Read-outs that look alike come from different tables or passages of the source.
Legend:
[1] = molecular target: T1, SARS-CoV-2 PLpro (nsp3 1564–1878) (Severe acute respiratory syndrome coronavirus 2, UniProt P0DTD1); assay: biochemical; set-up: FRET-quenched peptide (Pro3) cleavage by PLpro, 10 min pre-incubation, slope over 20 min, normalised to no-compound control; conditions: low concentration screen, read-out: % of control remaining
[2] = molecular target: T1, SARS-CoV-2 PLpro (nsp3 1564–1878); assay: biochemical; set-up: FRET-quenched peptide (Pro3) cleavage by PLpro, 10 min pre-incubation, slope over 20 min, normalised to no-compound control; conditions: high concentration screen, read-out: % of control remaining

CN(C)c1ccc(O)c2c1C[C@H]1C[C@H]3[C@H](N(C)C)C(O)=C(C(N)=O)C(=O)[C@@]3(O)C(O)=C1C2=O
remaining activity at 1.25 µM ([1]; Well no.=3663): 102%

CC(N)(C(=O)O)c1ccc(C(=O)O)cc1 (racemic)
remaining activity at 3.75 µM ([2]; Well no.=880): 111%

CC(C)NCC(O)c1ccc(O)c(O)c1 (racemic)
remaining activity at 1.25 µM ([1]; Well no.=1107): 97.8%

Oc1cc2c(cc1O)C(c1ccccc1)CNCC2 (racemic)
remaining activity at 3.75 µM ([2]; Well no.=542): 98.7%

CN(C)CCC(c1ccc(Cl)cc1)c1ccccn1 (racemic)
remaining activity at 1.25 µM ([1]; Well no.=124): 92.9%

CN1C[C@@H]2c3ccccc3Oc3ccc(Cl)cc3[C@H]2C1 (racemic) [Asenapine]
remaining activity at 3.75 µM ([2]; Well no.=5151): 105%

CCC1(c2ccc(N)cc2)CCC(=O)NC1=O (racemic) [DL-Aminoglutethimide]
remaining activity at 1.25 µM ([1]; Well no.=2117): 99.9%

O=C(CCN1CCN(C(=O)OCc2cc(Cl)cc(Cl)c2)CC1)c1ccc2[nH]c(=O)oc2c1 [3,5-dichlorobenzyl 4-[3-oxo-3-(2-oxo-2,3-dihydro-1,3-benzoxazol-6-yl)propyl]-1-piperazinecarboxylate]
remaining activity at 3.75 µM ([2]; Well no.=5605): 105%

CC(=O)[C@H]1CC[C@H]2[C@@H]3CC[C@H]4C[C@H](O)CC[C@]4(C)[C@H]3CC[C@]12C [5alpha-Pregnan-3alpha-ol-20-one]
remaining activity at 1.25 µM ([1]; Well no.=1353): 104%

Cc1noc(-c2ccc(-c3ccc(CC(=O)O)cc3)cc2)c1NC(=O)O[C@H](C)c1ccccc1 [AM095 (free acid)]
remaining activity at 3.75 µM ([2]; Well no.=7853): 101%

O=c1cc(-c2cccc3c2Sc2ccccc2S3)oc(N2CCOCC2)c1 [ATM Kinase Inhibitor]
remaining activity at 3.75 µM ([2]; Well no.=2310): 104%

CCCC(=O)Nc1ccc(OCC(O)CNC(C)C)c(C(C)=O)c1 (stereo not shown) [Acebutolol HCl]
remaining activity at 3.75 µM ([2]; Well no.=5074): 103%

C=CCc1ccccc1OCC(O)CNC(C)C (stereo not shown) [Alprenolol.HCl]
remaining activity at 1.25 µM ([1]; Well no.=1686): 103%

CC(NC(C)(C)C)C(=O)c1cccc(Cl)c1 (stereo not shown) [Amfebutamone]
remaining activity at 1.25 µM ([1]; Well no.=1694): 98.7%

CN1[C@@H]2CC[C@H]1C[C@@H](OC(=O)C(CO)c1ccccc1)C2 (stereo partly shown) [Atropine]
remaining activity at 1.25 µM ([1]; Well no.=1552): 100%

O=C1CC2(CCCC2)CC(=O)N1CCCCN1CCN(c2ncccn2)CC1 [Buspirone]
remaining activity at 3.75 µM ([2]; Well no.=2179): 105%

S=C(S)O[C@@H]1C[C@@H]2C[C@@H]1[C@H]1CCC[C@@H]21 [D609]
remaining activity at 3.75 µM ([2]; Well no.=4133): 100%

CC/C(=C(/CC)c1ccc(O)cc1)c1ccc(O)cc1 [Diethylstilbestrol]
remaining activity at 3.75 µM ([2]; Well no.=1982): 98.4%

Cc1cccc2c3c(ccc12)C1=C(C(=O)C3=O)C(C)CO1 (stereo not shown) [Dihydrotanshinone]
remaining activity at 1.25 µM ([1]; Well no.=3569): 102%

COc1ccc([C@@H]2Sc3ccccc3N(CCN(C)C)C(=O)[C@@H]2OC(C)=O)cc1 [Diltiazem hydrochloride]
remaining activity at 3.75 µM ([2]; Well no.=399): 103%

O=c1[nH]c2ccccc2n1CCN1CCN(c2cccc(C(F)(F)F)c2)CC1 [Flibanserin]
remaining activity at 1.25 µM ([1]; Well no.=6855): 102%

Cc1ccc(OC[C@H](O)[C@@H](C)NC(C)C)c2c1CCC2 [ICI 118,551 (hydrochloride)]
remaining activity at 1.25 µM ([1]; Well no.=7035): 106%

COc1ccc(Cl)cc1NC(=O)Nc1cc(C)nc2ccccc12 [IGF-1R Inhibitor II]
remaining activity at 3.75 µM ([2]; Well no.=2451): 104%

O=C(c1ccc(Nc2nccc(-c3cc4ccccc4s3)n2)cc1)N1CCC(N2CCCC2)CC1 [IKK Inhibitor VII]
remaining activity at 1.25 µM ([1]; Well no.=2439): 103%

CN(C)CCCN1c2ccccc2CCc2ccccc21 [Imipramine.HCl]
remaining activity at 3.75 µM ([2]; Well no.=1688): 102%

CC(C)[N+]1(C)[C@@H]2CC[C@H]1C[C@@H](OC(=O)C(CO)c1ccccc1)C2 (stereo partly shown) [Ipratropium (bromide)]
remaining activity at 1.25 µM ([1]; Well no.=6175): 100%

COc1cc2ncnc(Nc3ccc(F)c(Cl)c3)c2cc1OCCCN1CCOCC1 [Iressa - N-(3-chloro-4-fluoro-phenyl)-7-methoxy-6-(3-morpholin-4-ylpropoxy)quinazolin-4-amine]
remaining activity at 1.25 µM ([1]; Well no.=2670): 97.6%

CC(C(=O)O)c1cccc(C(=O)c2ccccc2)c1 (stereo not shown) [Ketoprofen]
remaining activity at 3.75 µM ([2]; Well no.=973): 101%
remaining activity at 3.75 µM ([2]; Well no.=1576): 98.4%

C[N+](C)(C)[C@@H](Cc1c[nH]c(=S)[nH]1)C(=O)[O-] [L-Ergothioneine]
remaining activity at 3.75 µM ([2]; Well no.=3891): 100%

CC1(C)C(=O)N(CCN2CCC(C(=O)c3ccc(F)cc3)CC2)c2ccccc21 [LY-310,762 hydrochloride]
remaining activity at 1.25 µM ([1]; Well no.=833): 99.6%

CN1[C@@H](CC(=O)c2ccccc2)CCC[C@H]1C[C@H](O)c1ccccc1 [Lobeline]
remaining activity at 3.75 µM ([2]; Well no.=1663): 103%

CC[C@H](C)C(=O)O[C@H]1C[C@@H](C)C=C2C=C[C@H](C)[C@H](CC[C@@H]3C[C@@H](O)CC(=O)O3)[C@H]21 [Lovastatin]
remaining activity at 1.25 µM ([1]; Well no.=1830): 99.3%

COc1cc(Nc2ncc3c(n2)-c2ccc(Cl)cc2C(c2c(F)cccc2OC)=NC3)ccc1C(=O)O [MLN8237 (Alisertib)]
remaining activity at 3.75 µM ([2]; Well no.=4675): 104%

CN1C[C@@H](NS(=O)(=O)N(C)C)C[C@@H]2c3cccc4c3c(cn4C)C[C@H]21 [Mesulergine]
remaining activity at 3.75 µM ([2]; Well no.=1692): 106%

CC(C)(O)c1ccccc1CC[C@@H](SCC1(CC(=O)O)CC1)c1cccc(/C=C/c2ccc3ccc(Cl)cc3n2)c1 [Montelukast]
remaining activity at 3.75 µM ([2]; Well no.=1615): 101%

CN1CCN(C2Cc3ccccc3Sc3ccc(Cl)cc32)CC1 (stereo not shown) [Octoclothepin maleate salt]
remaining activity at 3.75 µM ([2]; Well no.=5506): 108%

CN(C)CC/C=C1/c2ccccc2COc2ccc(CC(=O)O)cc21 [Olopatadine]
remaining activity at 3.75 µM ([2]; Well no.=1786): 103%

Cc1nccn1CC1CCc2c(c3ccccc3n2C)C1=O (stereo not shown) [Ondansetron (hydrochloride dihydrate)]
remaining activity at 3.75 µM ([2]; Well no.=7521): 105%

Cc1cc(C(C)(C)C)c(O)c(C)c1CC1=NCCN1 [Oxymetazoline.HCl]
remaining activity at 3.75 µM ([2]; Well no.=1683): 105%

CCCCCCCCCCCCCCCC(=O)NCCO [Palmitoylethanolamide]
remaining activity at 3.75 µM ([2]; Well no.=900): 106%

O=C(Nc1cccc2c(=O)cc(-c3nnn[nH]3)oc12)c1ccc(OCCCCc2ccccc2)cc1 [Pranlukast (hemihydrate)]
remaining activity at 3.75 µM ([2]; Well no.=6603): 102%

COC(=O)[C@H]1[C@H]2C[C@H]3c4[nH]c5ccccc5c4CCN3C[C@H]2CC[C@@H]1O [Rauwolscine (hydrochloride)]
remaining activity at 3.75 µM ([2]; Well no.=8155): 99.9%

C1COC(NC(C2CC2)C2CC2)=N1 [Rilmenidine phosphate]
remaining activity at 3.75 µM ([2]; Well no.=1695): 106%

CNCC[C@H](Oc1ccc(C(F)(F)F)cc1)c1ccccc1 [S-(+)-Fluoxetine hydrochloride]
remaining activity at 3.75 µM ([2]; Well no.=753): 99.7%

Oc1cc2c(cc1O)C(c1ccccc1)CNCC2 (stereo not shown) [SKF 38393 (hydrochloride)]
remaining activity at 3.75 µM ([2]; Well no.=7231): 97.8%

O=C(CCCN1CCC2(CC1)C(=O)NCN2c1ccccc1)c1ccc(F)cc1 [Spiperone.HCl]
remaining activity at 3.75 µM ([2]; Well no.=1648): 106%

Cc1ccc(C(=O)Nc2ccc(S(=O)(=O)O)c3cc(S(=O)(=O)O)cc(S(=O)(=O)O)c23)cc1NC(=O)c1cccc(NC(=O)Nc2cccc(C(=O)Nc3cc(C(=O)Nc4ccc(S(=O)(=O)O)c5cc(S(=O)(=O)O)cc(S(=O)(=O)O)c45)ccc3C)c2)c1 [Suramin hexasodium]
remaining activity at 3.75 µM ([2]; Well no.=1469): 102%

Nc1c2c(nc3ccccc13)CCCC2 [Tacrine]
remaining activity at 3.75 µM ([2]; Well no.=1675): 105%

CN(C)CCCN1c2ccccc2Sc2ccc(C(F)(F)F)cc21 [Triflupromazine hydrochloride]
remaining activity at 3.75 µM ([2]; Well no.=1285): 105%

CCC(COC(=O)c1cc(OC)c(OC)c(OC)c1)(c1ccccc1)N(C)C (stereo not shown) [Trimebutine (maleate)]
remaining activity at 3.75 µM ([2]; Well no.=6655): 107%

Cc1cccc(C)c1NC1=NCCCS1 [Xylazine hydrochloride]
remaining activity at 3.75 µM ([2]; Well no.=1388): 98.8%
